Here are results for 23 compounds from patent US12083115B2, “Methods for treating neurological symptoms associated with lysosomal storage diseases” (Genzyme Corporation, priority 2020, dated 2024).

The structures appear in SMILES notation. pIC50: −log10 of the molar value.

As usually defined, the pIC50 is the IC50 on a negative log10 scale, so that one unit is a factor of ten.

Data set [1] addresses glucosylceramide synthase (Homo sapiens (Human), UniProt Q16739). In words: Glucosylceramide synthase activity microsomal assay. The class given is biochemical. To be noted: microsomes from A375 human melanoma cells; read-out: GCS IC50. The source says:
(§1) Inhibition of glucosylceramide synthase activity can be measured with one or more assays. A first assay is a microsomal assay that directly measures the conversion of ceramide to glucosylceramide by HPLC. Microsomes are a source of glucosylceramide synthase activity in the microsomal assay. A second assay is a cell based, phenotypic assay that monitors cell surface expression of the downstream lipid GM3 by antibody mediated immunofluorescence. Specific protocols are provided below.
An enzyme assay using microsomes as a source of glucosylceramide synthase activity. Fluorescent ceramide substrate is delivered to membrane-bound enzyme as a complex with albumin. After reaction, ceramide and glucosylceramide are separated and quantitated by reverse-phase HPLC with fluorescence detection. Enzymatic activity is assessed using a fluorescent labeled substrate and microsomes as a source of glucosylceramide synthase. C6-NBD-Ceramide is complexed with albumin for delivery to microsomes that are isolated according to the procedure described below. The final concentration of C6-NBD-Ceramide in the stock solution is 0.5 mM; the final concentration of BSA is 0.5 mM. Separation and quantitation of substrate and product (glucosylceramide) are achieved by reverse-phase HPLC with fluorescence detection.
Microsomes are isolated from A375 human melanoma cells. Eight to ten million cells are harvested by trypsinization and washed with ice cold PBS. Cells are resuspended in ice-cold lysis buffer containing protease inhibitors. Cell lysate is sonicated on ice using a probe sonicator. After sonication, the cell lysate is separated from debris by centrifugation at 10,000 g for 10 minutes at 4° C. The supernatant is removed and cleared by additional centrifugation at 100,000 g for 1 hour at 4° C. The pellet is then resuspended in the lysis buffer, aliquoted, and stored at −80° C. prior to use.
The reaction is stopped by the addition of 150 μL of 100 μM C8-ceramide in 50% aq. isopropanol; 10 μL of the final mix is analyzed on HPLC (with fluorescence detector). […] Fluorescence is detected with λex=470 nm and λem=530 nm. […] Both peaks are separated from each other and the baseline and were integrated automatically by the HPLC software. The percent conversion of substrate to product is used as the readout for inhibitor testing. […]

Data set [2] has as its system GM3 expression in B16 mouse melanoma cells. In words: GM3 fluorescent-linked immunosorbent assay (FLISA), B16. The class given is cell-based. Conditions: 48 hours.
From the text: as §1
(§2) This is a phenotypic assay that measures GM3 expression in B16 mouse melanoma or C32 human melanoma cells following treatment with test compounds. Cell surface GM3 expression is determined by antibody mediated fluorescence.
(§3) Compounds are diluted in media and plated in 384 well plates in DMSO. B16 and C32 cells are assayed at densities of 20,000 cells/ml and 62,500 cells/ml, respectively, per well. Each titration curve contains 10 points that are assayed in duplicate on each test run. The plates are incubated for 48 hours at 37° C., 5% CO2, and are then washed once with TBS. Anti-GM3 antibody is added to each well and the plates are then incubated for an additional one hour at room temperature. Plates are subsequently washed twice and incubated for an additional hour with the labeled secondary antibody. Following the final incubation, the plates are washed twice and the fluorescence at λex=D640/20 nm and λem=657 nm is detected on a fluorescent reader.
(§4) The results of the microsomal assays are expressed as “GCS IC50,” which represents the concentration of the compound causing 50% inhibition of glucosylceramide synthase activity. The results of the cell-based assays are expressed as “GM3 B16 IC50” or “GM3 C32 IC50” for the B16 assay and the C32 assay, respectively. These values represent the concentration of the compound causing 50% inhibition of GM3 expression on the cell surface.

Data set [3] deals with GM3 expression in C32 human melanoma cells. Nature of the data set: GM3 fluorescent-linked immunosorbent assay (FLISA), C32. The class given is cell-based. To be noted: 48 hours.
From the text: as §1, §2, §3, §4

The test system of data set [4] is neurological manifestations of GD-3. Conditions: cited from earlier work.

Sequence of glucosylceramide synthase (Q16739 whole entry): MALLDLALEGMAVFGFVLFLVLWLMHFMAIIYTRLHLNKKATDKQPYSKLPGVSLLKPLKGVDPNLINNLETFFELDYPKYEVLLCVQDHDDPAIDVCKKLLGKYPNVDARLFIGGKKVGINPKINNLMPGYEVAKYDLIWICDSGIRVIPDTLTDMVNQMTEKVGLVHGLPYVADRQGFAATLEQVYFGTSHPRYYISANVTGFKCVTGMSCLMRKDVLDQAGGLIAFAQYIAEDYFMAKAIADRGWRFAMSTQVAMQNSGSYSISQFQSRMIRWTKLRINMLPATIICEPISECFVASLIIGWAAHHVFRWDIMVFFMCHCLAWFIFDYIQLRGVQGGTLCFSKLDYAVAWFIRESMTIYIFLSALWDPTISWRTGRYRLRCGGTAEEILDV

With `CC(C)(NC(=O)OC1CN2CCC1CC2)c1cccc(-c2ccc(F)cc2)c1` (centres unmarked) [Compound 1, Quinuclidin-3-yl (2-(4′-fluoro-[1,1′-biphenyl]-3-yl)propan-2-yl)carbamate], the pIC50 in data set [1] is 5.72; in data set [2] it was 4.81; in data set [3], 5.68.
For the compound `COCCOc1ccc(-c2ccc(C(C)(C)NC(=O)O[C@@H]3CN4CCC3CC4)cc2)cc1` [Compound 3, (S)-quinuclidin-3-yl (2-(4′-(2-methoxyethoxy)-[1,1′-biphenyl]-4-yl)propan-2-yl)carbamate], the pIC50 is 5.38 in data set [1], 4.36 in data set [2] and 5.88 in data set [3].
Consider `CC(C)(NC(=O)OC1CN2CCC1CC2)c1cccc(-c2ccccc2)c1` (centres unmarked) [Compound 4, 1-azabicyclo[2.2.2]oct-3-yl [2-(biphenyl-3-yl)propan-2-yl]carbamate], for which the pIC50 in data set [1] was 5.82; in data set [2], 4.94; in data set [3], 6.10.
The matching figures for `CC(C)(NC(=O)O[C@@H]1CN2CCC1CC2)c1ccc(-c2ccccc2)cc1` [Compound 5, (S)-quinuclidin-3-yl 2-(biphenyl-4-yl)propan-2-ylcarbamate]: 5.92, 4.71 and 6.52.
Turning to `O=C(NC1(c2ccc(-c3ccccc3)cc2)CC1)OC1CN2CCC1CC2` (centres unmarked) [Compound 6, Quinuclidin-3-yl 1-(biphenyl-4-yl)cyclopropylcarbamate], the pIC50 in data set [1] was 5.55; in data set [2] it was 4.74; in data set [3] it was 6.22.
The matching figures for `O=C(NC1(c2ccc(-c3ccc(F)cc3)cc2)CC1)O[C@@H]1CN2CCC1CC2` [Compound 7, (S)-quinuclidin-3-yl 1-(4′-fluorobiphenyl-4-yl)cyclopropylcarbamate]: 5.85, 5.09 and 6.40.
For `O=C(NC1(c2ccc(-c3ccc(F)cc3F)cc2)CC1)O[C@@H]1CN2CCC1CC2` [Compound 8, (S)-1-azabicyclo[2.2.2]oct-3-yl [1-(2′,4′-difluorobiphenyl-4-yl)cyclopropyl]carbamate], in that order: 6.00, 5.12 and 6.40.
On to `COc1ccc(-c2ccc(C3(NC(=O)OC4CN5CCC4CC5)CC3)cc2)cc1` (centres unmarked) [Compound 9, 1-azabicyclo[2.2.2]oct-3-yl [1-(4′-methoxybiphenyl-4-yl)cyclopropyl]carbamate], for which the pIC50 in data set [1] was 5.85; in data set [2], 4.77; in data set [3] it was 6.40.
For `CC(C)(NC(=O)OC1CN2CCC1CC2)c1csc(-c2ccc(F)cc2)c1` (centres unmarked) [Compound 10, Quinuclidin-3-yl 2-(5-(4-fluorophenyl)thiophen-3-yl)propan-2-ylcarbamate], in that order: 5.19, 4.67 and 5.66.
With `CC(C)(NC(=O)O[C@@H]1CN2CCC1CC2)c1cc(-c2ccc(F)cc2)ns1` [Compound 11, (S)-quinuclidin-3-yl 2-(3-(4-fluorophenyl)isothiazol-5-yl)propan-2-ylcarbamate], the results for the pIC50 in data set [1], in data set [2] and in data set [3] were 4.83, 4.09 and 5.74, respectively.
For `CC(C)(NC(=O)O[C@@H]1CN2CCC1CC2)c1nc(-c2ccc(F)cc2)cs1` [Compound 12, (S)-quinuclidin-3-yl 2-(4-(4-fluorophenyl)thiazol-2-yl)propan-2-ylcarbamate], in that order: 4.69, 4.06 and 5.43.
For `COCCOc1ccc(-c2ccc(C(C)(C)NC(=O)OC3CN4CCC3CC4)cc2)cc1` (centres unmarked) [Compound 13, Quinuclidin-3-yl (2-(4′-(2-methoxyethoxy)-[1,1′-biphenyl]-4-yl)propan-2-yl)carbamate], in that order: 5.46, 4.41 and 6.15.
For `COCCOc1cccc(-c2ccc(C(C)(C)NC(=O)O[C@@H]3CN4CCC3CC4)cc2)c1` [Compound 14, (S)-quinuclidin-3-yl (2-(3′-(2-methoxyethoxy)-[1,1′-biphenyl]-4-yl)propan-2-yl)carbamate], in that order: 4.98, 3.96 and 5.28.
As to `COCCOc1ccc(-c2cccc(C(C)(C)NC(=O)OC3CN4CCC3CC4)c2)cc1` (centres unmarked) [Compound 15, Quinuclidin-3-yl (2-(4′-(2-methoxyethoxy)-[1,1′-biphenyl]-3-yl)propan-2-yl)carbamate], the pIC50 in data set [1] was 4.57; in data set [2], 4.53; in data set [3], 5.31.
`COCCCOc1ccc(-c2ccc(C(C)(C)NC(=O)OC3CN4CCC3CC4)cc2)cc1` (centres unmarked) [Compound 16, Quinuclidin-3-yl (2-(4′-(3-methoxypropoxy)-[1,1′-biphenyl]-4-yl)propan-2-yl)carbamate]: the pIC50 was 5.62 in data set [1], 4.18 in data set [2] and 5.80 in data set [3].
For `CC(C)(NC(=O)OC1CN2CCC1CC2)c1ccc(-c2ccc(CO)cc2)cc1` (centres unmarked) [Compound 17, Quinuclidin-3-yl (2-(4′-(hydroxymethyl)-[1,1′-biphenyl]-4-yl)propan-2-yl)carbamate], in that order: 3.34, 3.06 and 4.67.
Take `CC(C)(NC(=O)OC1CN2CCC1CC2)c1ccc(-c2ccc(CCO)cc2)cc1` (centres unmarked) [Compound 18, Quinuclidin-3-yl (2-(4′-(2-hydroxyethyl)-[1,1′-biphenyl]-4-yl)propan-2-yl)carbamate]: the pIC50 in data set [1] is 3.83; in data set [2] it was 3.18; in data set [3] it was 4.65.
For `COCCCOc1ccc(-c2nc(C(C)(C)NC(=O)OC3CN4CCC3CC4)cs2)cc1` (centres unmarked) [Compound 19, Quinuclidin-3-yl (2-(2-(4-(3-methoxypropoxy)phenyl)thiazol-4-yl)propan-2-yl)carbamate], the pIC50 was 3.77 in data set [1], 3.71 in data set [2] and 4.37 in data set [3].
For `COCCOc1ccc(-c2nc(C(C)(C)NC(=O)OC3CN4CCC3CC4)cs2)cc1` (centres unmarked) [Compound 20, Quinuclidin-3-yl (2-(2-(4-(2-methoxyethoxy)phenyl)thiazol-4-yl)propan-2-yl)carbamate], the figures for the negative logarithm of the IC50 (pIC50) in data set [1], in data set [2] and in data set [3] were 3.44, 3.97 and 4.70, respectively.
With `COCCOc1ccc(-c2ccc(C(C)(C)NC(=O)OC3CN4CCC3CC4)nc2)cc1` (centres unmarked) [Compound 21, Quinuclidin-3-yl 2-(5-(4-(2-methoxyethoxy)phenyl)pyridin-2-yl)propan-2-ylcarbamate], the results for the pIC50 in data set [1], in data set [2] and in data set [3] were 4.30, 3.58 and 4.95, respectively.
As for `CC(C)(NC(=O)OC1CN2CCC1CC2)c1ccc(-c2ccc(OCCCC#N)cc2)cc1` (centres unmarked) [Compound 22, Quinuclidin-3-yl (2-(4′-(3-cyanopropoxy)-[1,1′-biphenyl]-4-yl)propan-2-yl)carbamate], the pIC50 in data set [1] was 5.02; in data set [2] it was 4.06; in data set [3], 5.49.
On to `CC(C)(NC(=O)OC1CN2CCC1CC2)c1ccc(-c2ccc(OCC#N)cc2)cc1` (centres unmarked) [Compound 23, Quinuclidin-3-yl (2-(4′-(cyanomethoxy)-[1,1′-biphenyl]-4-yl)propan-2-yl)carbamate], for which the pIC50 in data set [1] was 5.59; in data set [2], 4.32; in data set [3] it was 6.10.
In the case of `CCCCN1C[C@H](O)[C@@H](O)[C@H](O)[C@H]1CO` [miglustat], in data set [4] (clinical trials), the “treatment of the neurological manifestations of GD-3” value is on record as “ineffective”. The “crossing of the blood-brain barrier” value in data set [4] (human, in vivo) is reported as “does cross the blood-brain barrier”.
